In article PMC10470053, “Diverse p120RasGAP interactions with doubly phosphorylated partners EphB4, p190RhoGAP, and Dok1” (The Journal of Biological Chemistry, 2023):
“And” between values parts separate entries of the source, which are not always exact repeats. Equal values may be shown once. Read-outs that look alike come from different tables or passages of the source. Square brackets hold non-standard residues; d marks the D form. Peptide text beside a SMILES is read from it. pY = N[C@@H](Cc1ccc(OP(=O)(O)O)cc1)C(=O)O

Experiments:
[1] = target: T1, RasGAP^232(mut) (R398E/K400E, C-SH2 mutant) (Homo sapiens, UniProt P20936, C236S/C261S/C372S/C402S/K400E/R398E); assay: Isothermal titration calorimetry, C-SH2 mutant RasGAP^232(mut); assay type: binding
T1 construct: (residues 174–444, termed RasGAP^232); hexahistidine (TEV-cleavable) (N, cleaved yes); made in house; host or cells: E. coli Rosetta (DE3)
T1 sequence (P20936 174-444 C236S/C261S/C372S/R398E/K400E/C402S): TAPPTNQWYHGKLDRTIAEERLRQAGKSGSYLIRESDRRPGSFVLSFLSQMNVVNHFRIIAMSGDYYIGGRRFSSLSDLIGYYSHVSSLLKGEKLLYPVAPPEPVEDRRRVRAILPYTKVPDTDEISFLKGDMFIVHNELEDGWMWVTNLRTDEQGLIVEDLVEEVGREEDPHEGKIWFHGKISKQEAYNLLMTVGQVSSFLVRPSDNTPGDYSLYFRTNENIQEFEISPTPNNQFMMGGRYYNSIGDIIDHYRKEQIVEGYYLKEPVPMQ
Description: One possibility for the difference in binding affinity of EphB4 compared to the other dually phosphorylated peptides is that only a single SH2 domain engages EphB4 at any time. This is supported by the observation that the Kd of binding, 2 μM, is similar to other reported individual SH2 phosphotyrosine interactions (for examples see ([60])) and the evidence of only one inflection point in the doubly phosphorylated EphB4–binding isotherm (Figs. 2B and S3). To assess this hypothesis, we generated two RasGAP^232 mutants that disrupt the phosphotyrosine-binding sites of either the N- or C-SH2 domains and conducted further ITC experiments. […] For the ‘FLVR-unique” C-terminal SH2, we introduced a double mutation R398E/K400E, to abrogate phosphotyrosine binding guided by our previous work ([52]), termed RasGAP^232(mut) (Fig. 2D). We additionally generated a double mutant of both SH2 domains, RasGAP^2(mut)32(mut), and purified each of these proteins (Fig. S2, B–D). […] We then assessed phosphopeptide binding of the single mutant SH2 domains. […] This is similar to the Kd of 2 ± 0.7 μM observed for titration of this peptide into WT RasGAP^232.
To attempt to parse the specificity of RasGAP for the more N- or C-terminal EphB juxtamembrane phosphotyrosines pY590 and pY596, we assessed the affinity of RasGAP^232(mut) for shorter synthesized EphB4 peptides corresponding to either of the two phosphotyrosines (Fig. 1C). […] Alternatively, the C-terminal SH2 may contribute to a second weaker interaction in a tandem interaction. […] This low-affinity interaction represents a primarily single N-SH2-dominant interaction.
Purified RasGAP^232 protein and solubilized peptides were dialyzed overnight against buffer containing 20 mM Tris pH 8, 250 mM NaCl in Slide-A-Lyzer 3 ml 10 kDa molecular weight cut off cassettes (Spectra-Por) and Micro Float-A-Lyzer 0.1 to 0.2 ml, 0.1 to […] molecular weight cut off devices (Spectra-Por), respectively. Protein and peptide concentrations were determined by A280 measured on a Nanodrop Lite (Thermo Fisher Scientific) instrument using extinction coefficients of 45,840 M^−1 cm^−1 for RasGAP^232 (and mutants), 917 M^−1 cm^−1 for the doubly phosphorylated EphB4 peptide, and 458.5 M^−1 cm^−1 for the singly phosphorylated EphB4 peptides as determined by ([74]). Dok1 peptide concentration was confirmed using Amino Acid Analysis performed at UC Davis Molecular Structure Facility. Samples were centrifuged for 10 min at 4 °C and degassed for 7 min using a Degassing Station (TA Instruments). ITC experiments were performed on a Nano ITC (TA Instruments) by loading protein into the 190 μl sample cell and titrating 20 times with 2.5 μl peptide in the titration syringe. Concentrations for sample cell and syringe for each trial are included in Table S1. The data were analyzed in NanoAnalyze software (TA Instrument) using blank (constant) and independent models (https://www.tainstruments.com/itcrun-dscrun-nanoanalyze-software/).

[2] = Reconstitution of lyophilized peptides in water; assay type: physicochemical; settings: lyophilized peptide reconstituted in water; spiked with 20 mM Tris pH 8 or 10 mM NaOH to increase solubility
Source text: Synthetic peptides were purchased from GenScript and contain N-terminal acetylation and C-terminal amidation for stability. The doubly phosphorylated EphB4 peptide (UniProt ID P54760) used in ITC and SAXS experiments contains residues 586 to 602 (GTKV[pTyr]IDPFT[pTyr]EDPNEA). The singly phosphorylated EphB4 peptides pY590 and pY596 used in ITC experiments contain the residues 586 to 595 (GTKV[pTyr]IDPFT) and residues 592 to 602 (DPFT[pTyr]EDPNE), respectively. The p190RhoGAP peptide (UniProt ID Q9NRY4) used in SAXS experiments contains the residues 1083 to 1111 (SD[pTyr]AEPMDAVVKPRNEEENI[pTyr]SVPH). The Dok1 peptide (UniProt ID Q99704) used in ITC and SAXS experiments contains the residues 291 to 322 (SPPAL[pTyr]AEPLDSLRIAPCPSQDSL[pTyr]SDPLDST). Lyophilized peptides were reconstituted in water, and less soluble peptides (pYpYEphB4 and pY590) were spiked with 20 mM Tris pH 8 or 10 mM NaOH to increase solubility. Concentrations of stock peptides are as follows: pYpY190 stock concentration is 10 mM; pYpYEphB4 stock concentration is 2.5 mM; Dok1 stock concentration is 5.5 mM; pY596 stock concentration is 10 mM; and pY590 stock concentration is 8 mM.

[3] = target: p190RhoGAP-A doubly phosphorylated peptide (Homo sapiens) (UniProt Q9NRY4); assay: ITC; settings: cited from earlier work
[4] = ITC, average of trials (Table S1)

Sequence of p190RhoGAP-A doubly phosphorylated peptide (Homo sapiens) (Q9NRY4 1083-1111): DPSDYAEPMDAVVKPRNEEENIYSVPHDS
Sequence of p120RasGAP SH2-SH3-SH2 (P20936 174-444): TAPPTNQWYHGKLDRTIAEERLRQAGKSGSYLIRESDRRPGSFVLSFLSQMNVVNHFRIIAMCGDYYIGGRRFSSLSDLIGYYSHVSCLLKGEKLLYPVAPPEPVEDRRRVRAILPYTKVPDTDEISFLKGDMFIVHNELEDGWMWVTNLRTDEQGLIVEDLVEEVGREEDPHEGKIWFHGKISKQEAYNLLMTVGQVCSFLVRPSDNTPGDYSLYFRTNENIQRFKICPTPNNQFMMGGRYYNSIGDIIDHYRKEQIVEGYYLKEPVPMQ

| Kd ([1]; ITC, 20 mM Tris pH 8, 250 mM NaCl, independent model, mean ± SD of trials (n = 4 pYpY EphB4, n = 3 pY590, pY596), read-out: Kd) [µM] | Molecule | weaker binding than the doubly phosphorylated EphB4 peptide ([1]; ITC Kd, singly versus doubly phosphorylated EphB4 peptide) | n ([1]; ITC stoichiometry, mean ± SD of trials) | -T∆S [1, 4] [kJ/mol] | Ka [1, 4] [µM⁻¹] | ∆G [1, 4] [kJ/mol] | ΔS ([1]; ITC, mean ± SD of trials) | -T∆S ([1]; trial 2, ITC) [kJ/mol] | Ka ([1]; trial 2, ITC) [µM⁻¹] | ∆G ([1]; trial 2, ITC) [kJ/mol] | ∆H ([1]; trial 2, ITC) [kJ/mol] | ∆S ([1]; trial 2, ITC) [J/mol*K] | -T∆S ([1]; trial 3, ITC) [kJ/mol] | ∆G ([1]; trial 3, ITC) [kJ/mol] | ∆H ([1]; trial 3, ITC) [kJ/mol] | ∆S ([1]; trial 3, ITC) [J/mol*K] | Kd ([1]; trial 3, ITC, read-out: Ka) [µM] | solubility on reconstitution, in words [2] | Kd [3] [µM] |
| --- | --- | --- | --- | --- | --- | --- | --- | --- | --- | --- | --- | --- | --- | --- | --- | --- | --- | --- | --- |
| – | CC[C@H](C)[C@H](NC(=O)[C@H](Cc1ccc(OP(=O)(O)O)cc1)NC(=O)[C@@H](NC(=O)[C@H](CCCCN)NC(=O)[C@@H](NC(=O)CNC(C)=O)[C@@H](C)O)C(C)C)C(=O)N[C@@H](CC(=O)O)C(=O)N1CCC[C@H]1C(=O)N[C@@H](Cc1ccccc1)C(=O)N[C@H](C(N)=O)[C@@H](C)O [pY590 EphB4] (Ac-GTKV[pY]IDPFT-NH2) | about 10 fold | 0.8 ± 0.1 | -12 | 0.07 | -28 | 40 J/mol∗K and 40 ± 18 J/mol∗K | -11.8 | 0.07 | -27.6 | -15.8 | 40.0 | -17.4 | -28.6 | -11.2 | 58.3 | 0.1 | less soluble | – |
| 1 ± 0.3 | CC[C@H](C)[C@H](NC(=O)[C@H](Cc1ccc(OP(=O)(O)O)cc1)NC(=O)[C@@H](NC(=O)[C@H](CCCCN)NC(=O)[C@@H](NC(=O)CNC(C)=O)[C@@H](C)O)C(C)C)C(=O)N[C@@H](CC(=O)O)C(=O)N1CCC[C@H]1C(=O)N[C@@H](Cc1ccccc1)C(=O)N[C@H](C(=O)N[C@@H](Cc1ccc(OP(=O)(O)O)cc1)C(=O)N[C@@H](CCC(=O)O)C(=O)N[C@@H](CC(=O)O)C(=O)N1CCC[C@H]1C(=O)N[C@@H](CC(N)=O)C(=O)N[C@@H](CCC(=O)O)C(=O)N[C@@H](C)C(N)=O)[C@@H](C)O [pYpY EphB4] (Ac-GTKV[pY]IDPFT[pY]EDPNEA-NH2) | – | – | – | – | – | – | – | – | – | – | – | – | – | – | – | – | less soluble | – |
| – | p120RasGAP SH2-SH3-SH2 (from UniProt P20936) | – | – | – | – | – | – | – | – | – | – | – | – | – | – | – | – | – | 0.01 |
